Earlier results, collected in US6531463B1, “Method for producing a fat mixture” (Spice Sciences Oy, priority 1998, dated 2003).

How the values were obtained:
[1] = test system: absorption of cholesterol; settings: for decrease of the absorption of cholesterol: nine adult patients, 5 days, 500 mg of cholesterol, 1 gram of β-sitosterol or 2 grams of β-sitosteryl oleate
[2] = test system: cholesterol levels, atherogenesis; settings: added to the feed of cholesterol fed rabbits
[3] = test system: serum cholesterol; settings: in vivo
[4] = test system: cholesterol levels; settings: added to the feed of cholesterol fed chicken
[5] = administered orally
[6] = test system: cholesterol levels; settings: preparations studied in 1950's and 1960's
[7] = test system: absorption of cholesterol

| Compound | reduction of the absorption of cholesterol from food ([1]; 1 gram of β-sitosterol, food containing 500 mg of cholesterol) [%] | decrease of the absorption of cholesterol [1] [%] | atherogenesis [2] | cholesterol levels [2] | lowering of the LDL-cholesterol level [3] [%] | lowering of the total serum cholesterol level [3] | cholesterol levels [4] | proportion absorbed [5] | lowering of cholesterol levels [6] | absorption of cholesterol ([7]; female rats (Uchita et al.)) | cholesterol balance in plasma and liver ([7]; female rats (Uchita et al.)) | inhibition of absorption of cholesterol ([7]; rats (Vahouny et al.)) [%] |
| --- | --- | --- | --- | --- | --- | --- | --- | --- | --- | --- | --- | --- |
| CC[C@H](CC[C@@H](C)[C@H]1CC[C@H]2[C@@H]3CC=C4C[C@@H](O)CC[C@]4(C)[C@H]3CC[C@]12C)C(C)C [β-sitosterol, stigmasta-5-en-3β-ole] | 42 | 42 | prevented atherogenesis | cholesterol levels were lowered | 19 | 10-15% | cholesterol levels were lowered | less than 5% |  |  |  |  |
| CCCCCCCC/C=C\CCCCCCCC(=O)O[C@H]1CC[C@@]2(C)C(=CC[C@H]3[C@@H]4CC[C@H]([C@H](C)CC[C@@H](CC)C(C)C)[C@@]4(C)CC[C@@H]32)C1 [β-sitoteryl oleate, β-sitosteryl oleate] |  | 33 |  |  |  |  |  |  |  |  |  |  |
| sitosterol |  |  |  |  |  |  |  |  | about 10% | inhibits absorption of cholesterol | lowers cholesterol balance in plasma and liver | 54 |
